Test results as given in patent US4520200A, “Isoxazole derivatives” (Zambon S.p.A., priority 1978, dated 1985).
Where “and” joins values, the source holds several entries; their conditions need not be identical. Equal entries are not always repeated.

Legend:
[1] = acute toxicity, LD50, mouse; details: in vivo
[2] = acute toxicity, LD50, rat; details: in vivo
[3] = tolerance in different animal species and administration ways; type: in vivo

In the case of `CC(C)(C)NCC(O)c1cc(Br)no1` (stereo not drawn) [Z 1170, 1-(3-bromo-isoxazol-5-yl)-2-ter.butylaminoethanol], the LD50 ([1]; ip) is reported as 230 mg/kg, the LD50 ([1]; iv, i.v. (1 ml/100 g/60")) is reported as 126 mg/kg and 420 µmol/kg and the LD50 ([1]; po, os) is reported as 770 mg/kg. The LD50 ([2]; iv, i.v. (1 ml/100 g/60")) was 196 mg/kg and 650 µmol/kg, the LD50 ([2]; po, os) was > 2000 mg/kg and the tolerance [3] was “particularly favorable tolerance”.
